One may read the IC50 as the concentration needed to halve the response being measured. Low values mean greater potency in that assay, high ones weaker potency in that assay.

What all share (format): cell-based
For assay [1], the target named is T1, TRPM4 (Homo sapiens, UniProt Q8TD43).
The target of the next assay is T2, TRPM5 (Homo sapiens, UniProt Q9NZQ8).
T2 sequence (Q9NZQ8 1-1165): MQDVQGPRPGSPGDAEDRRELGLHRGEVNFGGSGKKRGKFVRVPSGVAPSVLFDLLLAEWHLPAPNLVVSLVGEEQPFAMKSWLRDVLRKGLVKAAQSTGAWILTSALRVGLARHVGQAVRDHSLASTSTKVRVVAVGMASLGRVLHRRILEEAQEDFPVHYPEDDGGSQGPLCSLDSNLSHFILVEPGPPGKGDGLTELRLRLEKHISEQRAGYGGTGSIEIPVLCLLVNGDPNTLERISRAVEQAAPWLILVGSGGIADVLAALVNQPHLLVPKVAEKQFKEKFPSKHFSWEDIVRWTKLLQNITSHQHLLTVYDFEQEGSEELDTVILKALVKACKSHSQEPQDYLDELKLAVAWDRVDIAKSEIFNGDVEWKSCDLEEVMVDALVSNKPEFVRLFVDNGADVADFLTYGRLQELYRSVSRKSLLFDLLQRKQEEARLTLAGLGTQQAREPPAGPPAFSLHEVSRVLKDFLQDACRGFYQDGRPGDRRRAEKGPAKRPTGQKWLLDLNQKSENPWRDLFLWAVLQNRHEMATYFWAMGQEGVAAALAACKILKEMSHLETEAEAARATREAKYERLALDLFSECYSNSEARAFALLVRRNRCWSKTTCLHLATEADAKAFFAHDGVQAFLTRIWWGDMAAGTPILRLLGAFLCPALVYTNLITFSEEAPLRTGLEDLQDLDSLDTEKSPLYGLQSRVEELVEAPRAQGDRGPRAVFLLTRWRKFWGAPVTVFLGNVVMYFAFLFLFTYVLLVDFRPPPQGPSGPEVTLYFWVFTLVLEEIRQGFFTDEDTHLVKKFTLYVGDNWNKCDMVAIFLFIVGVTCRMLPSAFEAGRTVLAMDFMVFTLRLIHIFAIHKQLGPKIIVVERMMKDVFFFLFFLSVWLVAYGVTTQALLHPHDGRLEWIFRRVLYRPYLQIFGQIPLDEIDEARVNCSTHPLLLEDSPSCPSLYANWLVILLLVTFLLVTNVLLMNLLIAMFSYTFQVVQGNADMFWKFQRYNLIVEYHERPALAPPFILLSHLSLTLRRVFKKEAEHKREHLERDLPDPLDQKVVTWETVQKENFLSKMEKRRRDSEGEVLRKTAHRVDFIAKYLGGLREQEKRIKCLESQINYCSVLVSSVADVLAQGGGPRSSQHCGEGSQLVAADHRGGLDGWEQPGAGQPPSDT
Description: Excised membrane voltage clamp recordings on HEK293 cells expressing TRPM5. Particulars: excised patches, 50 μM free Ca2+, +100 mV.

For assay [2], the target named is T1, TRPM4. Description: Na+ influx screening assay.
The target of the next assay is TRPM4 A432T (Homo sapiens, UniProt Q8TD43, A432T). Description: Western blot of total and surface expression of TRPM4 A432T variant. The settings on record: 50 μM overnight, HEK293. On the technique in general: In western blotting, separated proteins are transferred to a membrane and probed.
Sequence of TRPM4 A432T (Q8TD43 whole entry A432T): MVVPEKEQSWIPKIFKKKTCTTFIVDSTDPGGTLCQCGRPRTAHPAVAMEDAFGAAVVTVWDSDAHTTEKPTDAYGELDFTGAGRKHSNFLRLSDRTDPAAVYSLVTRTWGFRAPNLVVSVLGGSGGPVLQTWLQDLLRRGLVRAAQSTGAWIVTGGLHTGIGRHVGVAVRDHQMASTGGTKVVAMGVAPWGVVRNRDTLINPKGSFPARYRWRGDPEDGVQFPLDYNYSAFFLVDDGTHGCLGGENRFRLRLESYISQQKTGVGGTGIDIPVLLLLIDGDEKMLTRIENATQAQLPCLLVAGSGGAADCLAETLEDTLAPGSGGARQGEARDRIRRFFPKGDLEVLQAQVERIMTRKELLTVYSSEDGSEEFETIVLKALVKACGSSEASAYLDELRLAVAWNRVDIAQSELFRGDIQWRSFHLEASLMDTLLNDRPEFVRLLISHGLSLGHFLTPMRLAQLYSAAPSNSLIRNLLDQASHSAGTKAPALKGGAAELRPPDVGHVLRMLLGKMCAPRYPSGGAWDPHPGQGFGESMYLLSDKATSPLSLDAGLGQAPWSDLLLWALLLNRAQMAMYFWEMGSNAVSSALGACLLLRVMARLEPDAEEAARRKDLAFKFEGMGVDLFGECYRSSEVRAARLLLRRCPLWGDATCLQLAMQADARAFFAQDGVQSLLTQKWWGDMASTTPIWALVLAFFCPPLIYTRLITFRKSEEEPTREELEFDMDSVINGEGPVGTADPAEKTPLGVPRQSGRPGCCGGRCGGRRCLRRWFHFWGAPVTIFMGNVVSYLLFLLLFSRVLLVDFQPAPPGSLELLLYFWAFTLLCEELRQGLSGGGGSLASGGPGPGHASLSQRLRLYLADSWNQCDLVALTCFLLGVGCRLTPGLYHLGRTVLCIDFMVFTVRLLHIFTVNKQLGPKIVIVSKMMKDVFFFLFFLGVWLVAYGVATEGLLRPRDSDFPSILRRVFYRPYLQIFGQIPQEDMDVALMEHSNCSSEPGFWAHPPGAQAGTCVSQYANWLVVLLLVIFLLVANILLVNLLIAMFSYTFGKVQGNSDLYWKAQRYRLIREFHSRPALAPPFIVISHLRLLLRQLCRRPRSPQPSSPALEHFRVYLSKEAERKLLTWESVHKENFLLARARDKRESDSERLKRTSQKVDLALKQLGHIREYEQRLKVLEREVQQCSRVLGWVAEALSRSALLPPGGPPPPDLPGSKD

T1 sequence (Q8TD43 whole entry): as the sequence (Q8TD43 whole entry A432T) above, with T432A counted along it

`Oc1cc2ccccc2c2ccccc12` [9-phenanthrol, reference compound]: at TRPM4 [1], half-maximal inhibition (IC50) was put at 17 ± 2.8 µM.

With `Cc1cc(Cl)ccc1OC(C)C(=O)Nc1cc(Cl)ccc1C(=O)O` (stereo not shown) [Compound 4], on TRPM5, the “effect on TRPM5 current” value is “variable potentiating effect”. On TRPM4 [1], this compound displayed an IC50 of 1 ± 0.2 µM. The “inhibition of TRPM4 current on application to the cytosolic side” value against TRPM4 [1] (1 μM on cytosolic side of excised patches, washout) is reported as “reversible inhibition”. The “inhibitory activity on TRPM4-mediated Na+ influx, hit confirmation” value on TRPM4 [2] (5 μM, repurchased solid samples) is reported as “confirmed their inhibitory activity”.

At TRPM4 [1], `O=C(COc1ccccc1Cl)Nc1cc(Br)ccc1C(=O)O` [Compound 11] came in with an IC50 of 1.6 ± 0.5 µM.

`Cc1cc(Cl)ccc1OCC(=O)Nc1cc(Cl)ccc1C(=O)O` [Compound 51]: on TRPM4 [2] (Na+ influx, Supporting Information Table S3 / text), the “TRPM4 inhibitory activity in words (SAR)” value is “no inhibitory activity”. Besides, the “rescue of A432T total and surface expression” value on TRPM4 A432T is listed as “did not restore the expression”.

In the case of `O=C(O)c1ccccc1Nc1cccc(C(F)(F)F)c1` [FFA, flufenamic acid, reference compound], on TRPM4 [1], the IC50 was 9.2 ± 1.2 µM.

Regarding `O=P(c1ccccc1)(c1ccccc1)c1ccccc1` [TPPO, triphenylphosphine oxide, reference compound], the “effect on TRPM5 current (positive control)” value on TRPM5 (20 μM) is reported as “inhibited TRPM5 current”.
